System: cellular uptake of PS-LNPs and LNPs
Assay: Cellular uptake inhibition experiments
Assay type: cell-based
Conditions: at least 50% inhibition considered significant
Source text: To elucidate mechanisms of cellular uptake and intracellular processing in the presence and absence of PS, we conducted a series of cellular uptake inhibition experiments. An arbitrary threshold of at least 50% inhibition was considered to be significant.

Row | Structure (SMILES) | inhibition of uptake of LNPs (without PS) | inhibition of uptake of PS-LNPs
1 | O=C(N/N=C/c1ccc(O)c(O)c1)c1cc2ccccc2cc1O [Dynasore] | specifically inhibited | specifically inhibited
2 | COc1cc2c(c(OC)c1OC)-c1ccc(OC)c(=O)cc1[C@@H](NC(C)=O)CC2 [Colchicine] | specifically inhibited | specifically inhibited
3 | CN(C)CCCN1c2ccccc2Sc2ccc(Cl)cc21 [Chlorpromazine] |  | specifically inhibited

From patent publication EP4226916A1, “LIPID NANOPARTICLE COMPRISING PHOSPHATIDYLSERINE” (Universität Basel, priority 2022, dated 2023)
